From the CheMixHub ionic liquid set come the findings set out here.

The nature of the data set: xn = mol fraction of the nth substance listed. Particulars: 298.15 K, 101.3 kPa.

± gives the uncertainty stated by the source.

Turning to `CCCC[n+]1cccc(C)c1.O=S(=O)([N-]S(=O)(=O)C(F)(F)F)C(F)(F)F` + CCO, the electrical conductivity reads like this: (x2 = 0) 0.273 ± 0.005 S/m; (x2 = 0.4364) 0.642 ± 0.013 S/m; (x2 = 0.6597) 0.93 ± 0.019 S/m; (x2 = 0.8246) 1.07 ± 0.021 S/m.
